Test results as given in PMC11406361, “Several orphan solute carriers functionally identified as organic cation transporters: Substrates specificity compared with known cation transporters” (The Journal of Biological Chemistry, 2024).
Like-named read-outs stand apart in the source and are kept apart here.

Columns and labels:
SLC47A2 = SLC47A2 (Homo sapiens, UniProt Q86VL8); assay: Uptake ratio screen, SLC47A2-overexpressing HEK293 over empty vector cells; assay type: cell-based; conditions: 2.5 μM, 2 min
Sequence of SLC47A2 (Q86VL8 1-566 isoform Q86VL8-3): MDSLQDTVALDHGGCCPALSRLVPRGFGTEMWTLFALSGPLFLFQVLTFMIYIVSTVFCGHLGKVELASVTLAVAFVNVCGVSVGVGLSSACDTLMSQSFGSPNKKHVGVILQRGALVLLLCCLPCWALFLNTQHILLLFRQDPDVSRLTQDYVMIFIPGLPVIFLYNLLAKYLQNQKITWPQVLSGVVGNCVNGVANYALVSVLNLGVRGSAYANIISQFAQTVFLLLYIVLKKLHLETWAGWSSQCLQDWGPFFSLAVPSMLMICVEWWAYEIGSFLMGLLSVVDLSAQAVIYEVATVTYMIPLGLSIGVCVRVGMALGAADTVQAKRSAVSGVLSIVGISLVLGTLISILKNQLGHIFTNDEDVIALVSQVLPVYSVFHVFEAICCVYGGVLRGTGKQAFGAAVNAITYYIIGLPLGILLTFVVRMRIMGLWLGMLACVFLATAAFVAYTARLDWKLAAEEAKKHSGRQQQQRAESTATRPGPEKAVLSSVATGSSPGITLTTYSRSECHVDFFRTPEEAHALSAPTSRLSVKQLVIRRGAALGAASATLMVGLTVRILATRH
Protocol: (§1) Typically discussed substrates of the proton organic-cation antiporter ([14]) are highlighted in dark green in Figure 1.
(§2) In preparation for transport experiments, 24-well plates were pre-coated with poly-D-lysine (Sigma-Aldrich) and 300,000 cells were plated per well and incubated for 48 h. Firstly, the 24-well plate was placed on a heating plate at 37 °C, and the cells were washed with 37 °C HBSS^+ buffer (Hank’s balanced salt solution supplemented with 10 mM Hepes and adjusted to pH 7.4; Thermo Fisher Scientific). The substance-of-interest, which was diluted in 37 °C HBSS^+ to a desired concentration, was added to the cells for exactly 2 min. […] The uptake was stopped with ice-cold HBSS^+, and the 24-well plate was removed from the heating plate. The cells were washed twice with the cold HBSS^+ before they were lysed for 15 min with 80% (v/v) acetonitrile containing the respective internal standard for mass spectrometry. For variations in seeded cell numbers between the cell lines, several wells were lysed in RIPA buffer and used for total protein quantification using a bicinchoninic assay ([74]) and bovine serum albumin as calibration.
(§3) The intracellular drug concentrations after transport experiments were analyzed by high-performance liquid chromatography coupled to tandem mass spectrometry analysis. The HPLC consisted of a Shimadzu Nexera HPLC System with a SIL-30AC autosampler, a LC-30AD pump, a CTO-20AC column oven, and a CBM-20A controller (Shimadzu). The reverse-phase chromatography of compounds was accomplished with a Brownlee SPP RP-Amide column with 4.6 × 100 mm inner dimensions, a particle size of 2.7 μm, and a preceding Phenomenex C-18 guard column. […] After separation, the detection of substances was performed with an API 4000 tandem mass spectrometer (AB SCIEX, https://sciex.com/support/software-support/software-downloads), followed by quantification of results with the Analyst software (AB SCIEX, version 1.6.2). […]
(§4) Transport-mediated net uptake was determined as fold-increase of transporter-overexpressing cells over empty vector–transfected control cells.

SLC47A1 = biological target: T1, SLC47A1 (Homo sapiens, UniProt Q96FL8); assay: Uptake ratio screen, SLC47A1-overexpressing HEK293 over empty vector cells; assay type: cell-based; conditions: 2.5 μM, 2 min
T1 sequence (Q96FL8 1-570): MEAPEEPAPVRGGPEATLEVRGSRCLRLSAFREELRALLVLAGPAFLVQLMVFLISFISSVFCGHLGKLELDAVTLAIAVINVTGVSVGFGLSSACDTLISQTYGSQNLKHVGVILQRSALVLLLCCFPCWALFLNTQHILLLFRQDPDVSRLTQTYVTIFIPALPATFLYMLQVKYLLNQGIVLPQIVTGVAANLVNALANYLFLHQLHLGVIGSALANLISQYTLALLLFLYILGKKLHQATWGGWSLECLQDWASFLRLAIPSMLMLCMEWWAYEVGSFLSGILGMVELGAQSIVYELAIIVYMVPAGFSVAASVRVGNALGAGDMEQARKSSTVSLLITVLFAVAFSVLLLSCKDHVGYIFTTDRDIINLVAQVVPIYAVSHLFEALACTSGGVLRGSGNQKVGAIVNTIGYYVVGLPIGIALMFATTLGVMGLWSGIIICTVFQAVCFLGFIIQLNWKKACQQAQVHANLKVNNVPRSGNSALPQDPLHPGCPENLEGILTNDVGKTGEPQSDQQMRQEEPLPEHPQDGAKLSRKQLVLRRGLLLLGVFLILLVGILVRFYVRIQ
Protocol: as §1, §2, §3, §4

SLC35G3 [1] = biological target: T2, SLC35G3 (Homo sapiens, UniProt Q8N808); assay: Uptake ratio screen, SLC35G3-overexpressing HEK293 over empty vector cells; assay type: cell-based; set-up: by amplifying the entire gene-of-interest within the HEK293 genome via a long-range PCR; conditions: 2.5 μM substrate, 2 min, HEK293
T2 sequence (Q8N808 whole entry): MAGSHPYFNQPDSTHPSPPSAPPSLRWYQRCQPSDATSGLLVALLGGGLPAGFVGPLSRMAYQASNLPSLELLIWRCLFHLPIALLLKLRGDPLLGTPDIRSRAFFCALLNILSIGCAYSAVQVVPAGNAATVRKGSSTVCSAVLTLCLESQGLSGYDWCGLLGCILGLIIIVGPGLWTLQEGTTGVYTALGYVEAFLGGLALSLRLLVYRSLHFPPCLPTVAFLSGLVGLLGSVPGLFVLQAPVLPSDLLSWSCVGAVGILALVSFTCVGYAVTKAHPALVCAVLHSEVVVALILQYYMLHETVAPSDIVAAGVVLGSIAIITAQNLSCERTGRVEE

SLC35G3 [2] = biological target: T2, SLC35G3
SLC22A15 = biological target: T3, SLC22A15 (Homo sapiens, UniProt Q8IZD6); assay: Uptake ratio screen, SLC22A15-overexpressing HEK293 over empty vector cells; assay type: cell-based; conditions: 2.5 μM (nicotine 10 μM), 2 min
T3 construct: by amplifying the entire gene-of-interest within the HEK293 genome via a long-range PCR
T3 sequence (Q8IZD6 whole entry): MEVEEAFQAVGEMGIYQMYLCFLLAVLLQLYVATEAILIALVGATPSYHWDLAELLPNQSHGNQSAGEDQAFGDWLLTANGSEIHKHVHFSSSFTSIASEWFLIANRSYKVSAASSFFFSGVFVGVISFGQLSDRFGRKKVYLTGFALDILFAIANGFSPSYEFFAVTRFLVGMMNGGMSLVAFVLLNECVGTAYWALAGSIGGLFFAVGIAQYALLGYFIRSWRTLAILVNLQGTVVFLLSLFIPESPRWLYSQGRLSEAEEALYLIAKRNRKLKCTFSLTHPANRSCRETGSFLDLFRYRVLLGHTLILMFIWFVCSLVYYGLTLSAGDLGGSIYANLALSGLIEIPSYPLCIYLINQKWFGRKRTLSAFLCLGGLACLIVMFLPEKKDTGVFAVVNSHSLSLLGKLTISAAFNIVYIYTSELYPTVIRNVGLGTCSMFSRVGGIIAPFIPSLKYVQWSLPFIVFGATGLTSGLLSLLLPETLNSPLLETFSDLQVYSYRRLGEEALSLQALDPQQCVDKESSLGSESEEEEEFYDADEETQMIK
Protocol: as §1, §2
The intracellular drug concentrations after transport experiments were analyzed by high-performance liquid chromatography coupled to tandem mass spectrometry analysis. The HPLC consisted of a Shimadzu Nexera HPLC System with a SIL-30AC autosampler, a LC-30AD pump, a CTO-20AC column oven, and a CBM-20A controller (Shimadzu). The reverse-phase chromatography of compounds was accomplished with a Brownlee SPP RP-Amide column with 4.6 × 100 mm inner dimensions, a particle size of 2.7 μm, and a preceding Phenomenex C-18 guard column. The mobile phase was composed of an organic additive with acetonitrile:methanol 6:1 (v/v) in total concentrations between 3% and 50% (v/v) and 0.1% (v/v) formic acid in the aqueous component of the eluent. During separation, the column oven was held at 40 °C and the mobile phase was maintained at a flow rate of 300 or 400 μl/min. After separation, the detection of substances was performed with an API 4000 tandem mass spectrometer (AB SCIEX, https://sciex.com/support/software-support/software-downloads), followed by quantification of results with the Analyst software (AB SCIEX, version 1.6.2). The composition of chromatographic conditions, as well as detailed mass spectrometric detection parameters, are listed in Table S5.
as §4

SLC35G3 [3] = biological target: T2, SLC35G3; conditions: ratio of Vmax over KM
SLC35E4 = biological target: T4, SLC35E4 (Homo sapiens, UniProt Q6ICL7); assay: Uptake ratio screen, SLC35E4-overexpressing HEK293 over empty vector cells; assay type: cell-based; set-up: by amplifying the entire gene-of-interest within the HEK293 genome via a long-range PCR; conditions: 2.5 μM, 2 min
T4 sequence (Q6ICL7 1-350): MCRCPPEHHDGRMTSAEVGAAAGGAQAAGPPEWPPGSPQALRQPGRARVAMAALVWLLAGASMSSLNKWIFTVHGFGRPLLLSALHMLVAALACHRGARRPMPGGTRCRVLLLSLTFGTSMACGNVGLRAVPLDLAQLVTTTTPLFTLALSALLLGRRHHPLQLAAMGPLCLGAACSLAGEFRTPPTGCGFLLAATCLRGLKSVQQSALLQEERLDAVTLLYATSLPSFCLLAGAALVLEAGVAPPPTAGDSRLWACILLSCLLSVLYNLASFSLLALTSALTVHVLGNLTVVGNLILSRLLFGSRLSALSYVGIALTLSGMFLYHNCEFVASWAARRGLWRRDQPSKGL
Protocol: as §1, §2, §3, §4

Structure (SMILES)	Uptake data for SLC35G3, mean value (fold-increase over empty vector control) (SLC35G3 [1])	other results
Nc1nc2c(ncn2COCCO)c(=O)[nH]1 [Acyclovir]	1.21	Uptake by SLC47A2 (MATE2K) (in words) (SLC47A2): only transported by the MATEs; Uptake by SLC47A1 (MATE1) (in words) (SLC47A1): only transported by the MATEs
CCCNC(C)C(=O)Nc1c(C)csc1C(=O)OC (stereo not drawn) [Articaine]	2.91	Clint (±SEM) (SLC35G3 [2]): 2.04 (±2.24) μl × mg protein^-1 × min^-1
C[N+](C)(C)CC(O)CC(=O)[O-] (stereo not drawn) [Carnitine-d9]	1.05	Uptake by SLC22A15 (in words) (SLC22A15): did not measure significant uptake
C[N+](C)(C)[C@@H](Cc1c[nH]c(=S)[nH]1)C(=O)[O-] [Ergothionine]	1.67	Uptake by SLC22A15 (in words) (SLC22A15): did not measure significant uptake
CCOC(=O)C1(c2ccccc2)CCN(C)CC1 [Meperidine]	–	Uptake by SLC22A15 (in words) (SLC22A15): significantly increased the uptake; Clint (±SEM) (SLC35G3 [3]): 4.60 (±4.78) μl × mg protein^-1 × min^-1
C=CCN1CC[C@]23c4c5ccc(O)c4O[C@H]2C(=O)CC[C@@]3(O)[C@H]1C5 [Naloxone]	2.01	–
COCCOC(=O)C1=C(C)NC(C)=C(C(=O)OC(C)C)C1c1cccc([N+](=O)[O-])c1 (stereo not drawn) [Nimodipine]	1.26	–
CCOC(=O)[C@]1(c2ccccc2)CCC=C[C@H]1NC [Nortilidine]	2.87	–
O=C1c2cccc3c2[C@H](CCC3)CN1[C@@H]1CN2CCC1CC2 [Palonosetron]	1.36	–
Fc1ccc([C@@H]2CCNC[C@H]2COc2ccc3c(c2)OCO3)cc1 [Paroxetin]	1.30	–
CNC[C@H](O)c1cccc(O)c1 [Phenylephrine]	1.10	–
NC(=O)C1(N2CCCCC2)CCN(CCCC(=O)c2ccc(F)cc2)CC1 [Pipamperone]	1.33	–
CC(C)NCC(O)COc1cccc2ccccc12 (stereo not drawn) [Propranolol]	1.27	–
COc1ccc(CN(CCN(C)C)c2ccccn2)cc1 [Pyrilamine]	1.74	–
OCCOCCN1CCN(C2=Nc3ccccc3Sc3ccccc32)CC1 [Quetiapine]	1.37	–
C#CCN[C@@H]1CCc2ccccc21 [Rasagiline]	1.90	–
Cc1nc2n(c(=O)c1CCN1CCC(c3noc4cc(F)ccc34)CC1)CCCC2 [Risperidone]	1.41	–

Structure (SMILES)	Uptake data for SLC35G3, mean value (fold-increase over empty vector control) (SLC35G3 [1])	other results
CCN(C)C(=O)Oc1cccc([C@H](C)N(C)C)c1 [Rivastigmine]	1.65	–
CCCN(CCC)CCc1cccc2c1CC(=O)N2 [Ropinirole]	1.37	–
CCCN1CCCC[C@H]1C(=O)Nc1c(C)cccc1C [Ropivacaine]	3.07	Clint (±SEM) (SLC35G3 [2]): 3.64 (±1.93) μl × mg protein^-1 × min^-1
O=C(O[C@H]1CN2CCC1CC2)N1CCc2ccccc2[C@@H]1c1ccccc1 [Solifenacin]	1.26	–
CCOc1ccccc1OCCN[C@H](C)Cc1ccc(OC)c(S(N)(=O)=O)c1 [Tamsulosin]	1.39	–
COc1cc2nc(N3CCN(C(=O)C4CCCO4)CC3)nc(N)c2cc1OC (stereo not drawn) [Terazosin]	1.49	–
CC(C)(C)c1ccc(C(O)CCCN2CCC(C(O)(c3ccccc3)c3ccccc3)CC2)cc1 (stereo not drawn) [Terfenadine]	1.28	–
CCCCNc1ccc(C(=O)OCCN(C)C)cc1 [Tetracaine]	1.54	–
COc1cc(Cc2cnc(N)nc2N)cc(OC)c1OC [Trimethoprim]	1.24	–
CC(CN(C)C)CN1c2ccccc2CCc2ccccc21 (stereo not drawn) [Trimipramine]	1.47	–
NCCc1ccc(O)cc1 [Tyramine]	1.61	–
COc1ccccc1N1CCN(CCCNc2cc(=O)n(C)c(=O)n2C)CC1 [Urapidil]	1.37	–
COc1ccc(C(CN(C)C)C2(O)CCCCC2)cc1 (stereo not drawn) [Venlafaxine]	1.60	–
COCCn1c2c([n+](Cc3cnccn3)c1C)C(=O)c1ccccc1C2=O [YM155]	1.11	–
CN(C)CCc1c[nH]c2ccc(C[C@H]3COC(=O)N3)cc12 [Zolmitriptan]	1.27	–
C[C@]12CC[C@@H]3c4ccc(OS(=O)(=O)O)cc4CC[C@H]3[C@@H]1CCC2=O [estrone-3-sulfate]	–	Uptake by SLC47A2 (MATE2K) (in words) (SLC47A2): confirmed to be transported; Uptake by SLC47A1 (MATE1) (in words) (SLC47A1): confirmed to be transported
CC(C)C[C@H](N)C(=O)O [leucine]	–	Uptake by SLC35E4 (in words) (SLC35E4): minor
